IC50 data for eight compounds are collected here from patent publication US5328912A (priority 1993, dated 1994).

This assay deals with GABAa receptor. Briefly: GABAa receptor binding assay (displacement of 3H-RO15-1788, rat cortical tissue homogenate). The following applies: 3H-RO15-1788 0.5 nM, 30 min at 4° C., pH 7.4. As for the experimental part:
The pharmaceutical utility of compounds of this invention are indicated by the following assay for GABAa receptor activity.
Assays are carried out as described in Thomas and Tallman (J. Bio. Chem. 156: 9838-9842, J. Neurosci. 3: 433-440, 1983). Rat conical tissue is dissected and homogenized in 25 volumes (w/v) of 0.05M Tris HCl buffer (pH 7.4 at 4° C.). The tissue homogenate is centrifuged in the cold (4°) at 20,000× g for 20'. The supernatant is decanted and the pellet is rehomogenized in the same volume of buffer and again centrifuged at 20,000× g. The supernatant is decanted and the pellet is frozen at -20° C. overnight. The pellet is then thawed and rehomogenized in 25 volume (original wt/vol) of buffer and the procedure is carried out twice. The pellet is finally resuspended in 50 volumes (w/vol of 0.05M Tris HCl buffer (pH 7.4 at […]).
Incubations contain 100 μl of tissue homogenate 100 μl of radioligand 0.5 nM (^3 H-RO15-1788 specific activity 80 Ci/mmol), drug or blocker and buffer to a total volume of 500 μl. Incubations are carried for 30 min at 4° C. then are rapidly filtered through GFB filters to separate free and bound ligand. Filters are washed twice with fresh 0.05M Tris HCl buffer (pH 7.4 at 4° C.) and counted in a liquid scintillation counter. 1.0 μM diazepam is added to some tubes to determine nonspecific binding. Data are collected in triplicate determinations, averaged and % inhibition of total specific binding is calculated. Total Specific Binding=Total-Nonspecific. In some cases, the amounts of unlabeled drugs is varied and total displacement curves of binding are carried out. Data are convened to a form for the calculation of IC50 and Hill Coefficient (nH).
Compound `O=C(OCc1ccccc1)N1CCc2[nH]c(=O)n3cc(-c4ccccc4F)nc3c2C1` [Compound 44, 9-Carbobenzyloxy-2-(2-fluorophenyl)-7,8,9,10-tetrahydro-imidazo[1,2-c]pyrido[3,4-e]pyrimidin-5(6H)-one] yielded a half-inhibitory concentration (IC50) of 10 nM. In other words, the double-digit nanomolar range.

As to `O=C(c1ccccc1)N1CCc2[nH]c(=O)n3cc(-c4ccccc4F)nc3c2C1` [Compound 1, 9-Benzoyl-2-(2-fluorophenyl)-7,8,9,10-tetrahydro-imidazo[1,2-c]pyrido[3,4-e]pyrimidin-5(6H)-one], the IC50 amounted to 500 nM.

For `O=c1[nH]c2c(c3nc(-c4ccccc4F)cn13)CN(Cc1ccccc1F)CC2` [Compound 13, 9-(2-Fluorobenzyl)-2-(2-fluorophenyl)-7,8,9,10-tetrahydro-imidazo[1,2-c]pyrido[3,4-e] pyrimidin-5(6H)-one], the half-maximal inhibitory concentration (IC50) stood at 2.4 nM. This IC50 lies about 210-fold lower than the previous one.

The compound `O=c1[nH]c2c(c3nc(-c4ccccc4F)cn13)CN(Cc1ccc(F)cc1)CC2` [Compound 22, 9-(4-Fluorobenzyl)-2-(2-fluorophenyl)-7,8,9,10-tetrahydro-imidazo[1,2-c]pyrido[3,4-e]pyrimidin-5(6H)-one] gave a half-maximal inhibitory concentration (IC50) of 3.8 nM.

The compound `CN1CCc2[nH]c(=O)n3cc(-c4ccccc4F)nc3c2C1` [Compound 49, 9-Methyl-2-(2-fluorophenyl)-7,8,9,10-tetrahydro-imidazo[1,2-c]pyrido[3,4-e]pyrimidin-5(6H)-one] gave a 50% inhibitory concentration (IC50) of 30 nM. Compared with the last compound, the IC50 is about 7.9-fold higher.

`O=c1[nH]c2c(c3nc(-c4cccc(Cl)c4)cn13)CN(Cc1ccccc1)CC2` [Compound 14, 9-Benzyl-2-(3-chlorophenyl)-7,8,9,10-tetrahydro-imidazo[1,2-c]pyrido[3,4-e] pyrimidin-5(6H)-one] came in with a concentration for half-maximal inhibition (IC50) of 100 nM.

Take `CC(c1ccccc1)N1CCc2[nH]c(=O)n3cc(-c4ccccc4F)nc3c2C1` (racemic) [Compound 21, ±9-(α-Methylbenzyl)-2-(2-fluorophenyl)-7,8,9,10-tetrahydro-imidazo[1,2-c]pyrido[3,4-e] pyrimidin-5(6H)-one]: the half-inhibitory concentration (IC50) was 4.8 nM.

`CCC(=O)N1CCc2[nH]c(=O)n3cc(-c4ccccc4F)nc3c2C1` [Compound 36, 9-propionyl-2-(2-fluorophenyl)-7,8,9,10-tetrahydro-imidazo[1,2-c]pyrido[3,4-e]pyrimidin-5(6H)-one] showed an IC50 of 10 nM.
